Literature values in EP3315966A1, “STANDARD THYROID GLAND HORMONE SOLUTION” (Fujirebio Inc., priority 2015, dated 2017).

Details: buffer substance of the standard solution

pKa: 10.4
SMILES: O=S(=O)(O)CCCNC1CCCCC1 [CAPS, N-cyclohexyl-3-aminopropanesulfonic acid]
